Entries after “also recorded” stand apart in the source; their conditions may differ.
Key:
HeLa cells = conditions: lentiviral vector screening, at high concentrations
Experimental: For the vector assay HeLa cells were utilized and the HIV-1 lentiviral vector screening was performed in a 24 well plate. […] As the negative control AZT was used, a positive control as vector only and blank as un-infected were additionally used. Again the concentration of DMSO was limited to 0.1%. Hela cells (˜3.2*10^5 cells/ml) were infected with HIV-1 lentiviral vector in the presence of the compound(s) tested and controls. After the first 24 hours of incubation at 37° C. (5% CO2), cells were replaced with fresh media containing test compounds and incubated for an additional 24 hrs. Cells were fixed with 4% paraformaldehyde in PBS and mounted in DAPI on glass slides for visualization and quantification. Images, of at least 2 fields per glass disk were taken with an Olympus 1X51 fluorescence microscope equipped with a camera.

HIV-1 lentiviral vector = HIV-1 lentiviral vector screening assay; assay type: cell-based; conditions: HeLa cells, compared with no drug
Experimental: For the vector assay HeLa cells can be utilized and the experiment can be performed in a suitable plate, such as a 24 well plate. […] A negative control, e.g., AZT, and a positive control as vector only and blank as un-infected are appropriately selected. Again, the concentration of DMSO was limited to 0.1%. Hela cells (˜3.2-10^5 cells/ml) were infected with HIV-1 lentiviral vector in the presence of the compounds to be tested and controls. After the first 24 hours of incubation at 37° C. (5% CO2), cells are replaced with fresh media containing test compounds and incubated for an additional 24 hrs. Cells are fixed with 4% paraformaldehyde in PBS and mounted in DAPI on glass slides for visualization and quantification. Images, of at least 2 fields per glass disk are obtained, such as images taken with an Olympus 1X51 fluorescence microscope equipped with a camera. EGFP fluorescence spanning an average area of 12*10^5 square pixels is quantified using Image J software, from which IC50 values can bee extrapolated using graph pad PRISM software.
For the vector assay HeLa cells were utilized and the HIV-1 lentiviral vector screening was performed in a 24 well plate. […] Cells were fixed with 4% paraformaldehyde in PBS and mounted in DAPI on glass slides for visualization and quantification. […]

[1] = system: HIV-1 integrase (C-terminal domain), eGFP-MBP-IN-WT; experiment: cellular integrase assay (integrase screening assay, nuclear import inhibition); assay type: cell-based; conditions: HEK 293T cells transfected with eGFP-MBP-IN-WT, fluorescence microscopy, FIG. 1
Experimental: In assessing suitability of a compound according to any of the formulas herein, an integrase screening assay can be conducted. In the present case, an exemplary such assay is a cellular integrase assay. A cellular integrase assay can be performed in a 24 well plate. The assay is designed to test compounds in 3-fold serial dilutions (10, 3.3, 1.1 and 0.33 μM) with 0.1% DMSO. Negative and positive control included eGFP-MBP-IN-R262/3/6A, eGFP-MBP-IN-K236/240 and eGFP-MBP-IN-WT respectively supplemented with 0.1% DMSO. Refinement of the assay for optimal results is feasible. For example, refinement herein yields the following protocol. HEK 293T cells (˜0.4*10^5 cells/ml) are seeded and incubated at 37° C. (5% CO2) for ˜3 days on Poly-L-lysine treated glass coverslips until 80-90% confluent (˜3.2*10^5 cells/ml). Next, cells are transfected with 1 μg of eGFP-MBP-INR262/3/6A, eGFP-MBP-IN-K236/240 and eGFP-MBP-IN-WT DNA plasmid simultaneously with test compounds, at varying concentrations mentioned above, using lipofectamine 2000 transfection reagent (μL) at a ratio of 1:2 DNA plasmid to lipofectamine. After 4 hrs of incubation (at 37° C., 5% CO2), the lipofectamine mix is removed and replaced with fresh medium containing serum in the presence of the test compounds. […] Images may be prepared using an Olympus 1X51 fluorescence microscope equipped with a camera by way of example. […]

`Cc1ccc(S(=O)(=O)NCCCNS(=O)(=O)c2ccc(C)cc2)cc1` [compound 535, 4-methyl-N-[3-(4-methylbenzenesulfonamido)propyl] benzene sulfonamide] was tested, and the cellular toxicity (HeLa cells) was “without introducing cellular toxicity”, the “inhibitory effect on HIV infectivity / HIV-1 replication, dose dependence” value (HIV-1 lentiviral vector; FIG. 2) was “exhibited an inhibitory effect in a dose dependent manor” and the “inhibitory effect on HIV infectivity / HIV-1 replication, dose dependence” value (HIV-1 lentiviral vector; FIG. 2, listed as representative compound) was “clearly inhibited HIV-1 replication in a dose-dependent manor”. The “inhibition of nuclear import of integrase (nuclear exclusion phenotype)” value [1] was “nuclear exclusion of the fusion protein in majority of cells; also recorded: exhibited inhibition sufficient to prevent nuclear import of integrase; also recorded: clearly demonstrates inhibition of nuclear import of IN” and the “inhibition of nuclear import of integrase (nuclear exclusion phenotype)” value ([1]; listed as representative compound) was “displayed inhibition of nuclear import of IN similar to that of the triple mutant chimeric IN”.

Reference: US10301258B2, “Benzende sulfonamide derivatives as HIV integrase inhibitors” (priority 2014, dated 2019)
